How the values were obtained:
[1] = target: T1, PI3Kα (wild-type), P110/P85α (Homo sapiens, UniProt P42336); test: PI3 Kinase TR-FRET assay, PI3Kα (wild-type); format: biochemical
T1 construct: made in house; host or cells: SF9 insect cells
Procedure: The ability of compounds of the invention to inhibit PI3K activity was determined in a homogeneous TR-FRET assay using a PI3K assay kit (Millipore, USA; cat #33-016) according to manufacturer's instructions. PI3-Kinases (isoforms α, β, γ and δ) catalyze the phosphorylation of phosphatidylinositol, PIP2 to PIP3 in the presence of ATP and Mg^2+. The PIP3 product is detected by displacement of biotin-PIP3 from an energy transfer complex consisting of Europium labeled anti-GST monoclonal antibody, a GST-tagged PH domain, biotinylated PIP3 and Streptavidin-APC. Excitation of Europium in the complex results in an energy transfer to the APC and a fluorescence emission at 665 nm. The PIP3 product displaces biotin-PIP3 from the complex resulting in a loss of energy transfer and thus a decrease in signal.
To test for the ability of compounds to inhibit the activity of PI3Kα (wild-type), exemplary compounds of formula (I) were dissolved in DMSO and directly distributed into 384-well plates at a volume of 0.5 μL. 14.5 μL of P110/P85α/PIP2 mixture in buffer (obtained from the Millipore kit) containing MgCl2 (40 mM) and DTT (5 mM) was added to compound wells and incubated for 60 min at room temperature. P110/P85α was expressed in SF9 insect cells and purified nickel column extraction. Five ng of wild-type P110/P85α was used in the assay. The kinase reaction was started by the addition of ATP. The assay concentrations of both PIP2 and ATP were 10 μM. The reaction mixture was incubated for 30 min at room temperature and was terminated by the addition of stop mix and detection mix. Fluorescence was measured at 615 and 665 nm upon excitation at 340 nm in a Victor™ V5 fluorometer (Perkin Elmer, USA). The fluorescence emission ratio at 665 to 615 nm, proportional to the kinase activity, was plotted against the compound concentration to generate dose-response curves and IC50 values were determined using GraphPad Prism® 5 software.

mTOR kinase = target: T2, mTOR kinase (Homo sapiens, UniProt P42345); test: mTOR kinase TR-FRET assay; format: biochemical; details: read-out: mTO R
T2 construct: purchased Millipore, USA
Procedure: Compound inhibition for mTOR kinase was determined in a homogeneous TR-FRET assay using the Lance® ULight-p70 S6K (Thr 389) peptide (obtained from Perkin-Elmer). The ULight™-labeled synthetic peptide contains the amino acid residues surrounding Thr389 of human p70 S6K. The ULight-p70 S6K peptide is phosphorylated at Thr389 by mTOR. Phosphorylation motif: LGFTYVAP as substrate.
The compound dilution was carried out in 100% DMSO followed by a buffer dilution. The reaction buffer was HEPES (50 mM pH 7.5), EGTA (1 mM), MnCl2 (3 mM). Test compounds at various concentrations were pre-incubated with mTOR (Millipore, USA; 5 ng) for 60 min, and then the Lance® ULight-p70 S6K (Thr 389) peptide (50 nM) was added along with ATP (20 μM). After incubating the reaction mixture for 60 min at room temperature, the kinase reaction was terminated by the addition of EDTA (10 mM) followed by the addition of detection mix, i.e., 1 nM Eu-labeled anti-phospho-substrate antibody (Perkin Elmer, USA). The fluorescence emission at […] was measured upon excitation at 340 nm. IC50 values were subsequently determined using a sigmoidal dose-response curve (variable slope) in GraphPad Prism® 5 software.
Compounds of formula (I) caused inhibition of mTOR kinase activity as determined by this assay.

T1 sequence (P42336 whole entry): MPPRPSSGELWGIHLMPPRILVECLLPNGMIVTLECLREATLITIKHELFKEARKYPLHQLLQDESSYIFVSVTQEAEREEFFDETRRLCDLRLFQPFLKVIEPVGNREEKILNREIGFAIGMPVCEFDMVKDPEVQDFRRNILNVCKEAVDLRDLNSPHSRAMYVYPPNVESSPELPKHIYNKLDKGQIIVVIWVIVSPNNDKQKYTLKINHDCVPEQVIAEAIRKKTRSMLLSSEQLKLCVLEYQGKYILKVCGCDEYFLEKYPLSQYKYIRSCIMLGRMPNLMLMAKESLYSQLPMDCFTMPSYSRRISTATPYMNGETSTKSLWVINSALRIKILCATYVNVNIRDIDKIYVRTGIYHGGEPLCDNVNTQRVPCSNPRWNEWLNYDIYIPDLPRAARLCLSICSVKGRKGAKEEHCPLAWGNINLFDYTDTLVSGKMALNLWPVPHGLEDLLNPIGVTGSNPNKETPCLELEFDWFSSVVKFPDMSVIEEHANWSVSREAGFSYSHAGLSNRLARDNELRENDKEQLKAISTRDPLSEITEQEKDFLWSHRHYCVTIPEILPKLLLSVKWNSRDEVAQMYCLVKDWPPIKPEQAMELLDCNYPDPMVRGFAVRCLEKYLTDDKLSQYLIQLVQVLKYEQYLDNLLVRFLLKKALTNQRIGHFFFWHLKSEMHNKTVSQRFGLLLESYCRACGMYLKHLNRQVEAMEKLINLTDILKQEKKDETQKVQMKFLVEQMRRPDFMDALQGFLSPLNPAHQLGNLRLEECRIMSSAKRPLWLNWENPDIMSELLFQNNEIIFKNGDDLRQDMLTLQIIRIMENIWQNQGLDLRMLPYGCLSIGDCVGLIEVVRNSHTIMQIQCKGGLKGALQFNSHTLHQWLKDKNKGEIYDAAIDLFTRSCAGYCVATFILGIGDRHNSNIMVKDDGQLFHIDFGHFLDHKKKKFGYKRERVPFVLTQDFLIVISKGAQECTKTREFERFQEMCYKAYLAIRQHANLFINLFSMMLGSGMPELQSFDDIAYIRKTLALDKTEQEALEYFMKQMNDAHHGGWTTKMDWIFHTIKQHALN
T1 sequence (P27986 whole entry partner): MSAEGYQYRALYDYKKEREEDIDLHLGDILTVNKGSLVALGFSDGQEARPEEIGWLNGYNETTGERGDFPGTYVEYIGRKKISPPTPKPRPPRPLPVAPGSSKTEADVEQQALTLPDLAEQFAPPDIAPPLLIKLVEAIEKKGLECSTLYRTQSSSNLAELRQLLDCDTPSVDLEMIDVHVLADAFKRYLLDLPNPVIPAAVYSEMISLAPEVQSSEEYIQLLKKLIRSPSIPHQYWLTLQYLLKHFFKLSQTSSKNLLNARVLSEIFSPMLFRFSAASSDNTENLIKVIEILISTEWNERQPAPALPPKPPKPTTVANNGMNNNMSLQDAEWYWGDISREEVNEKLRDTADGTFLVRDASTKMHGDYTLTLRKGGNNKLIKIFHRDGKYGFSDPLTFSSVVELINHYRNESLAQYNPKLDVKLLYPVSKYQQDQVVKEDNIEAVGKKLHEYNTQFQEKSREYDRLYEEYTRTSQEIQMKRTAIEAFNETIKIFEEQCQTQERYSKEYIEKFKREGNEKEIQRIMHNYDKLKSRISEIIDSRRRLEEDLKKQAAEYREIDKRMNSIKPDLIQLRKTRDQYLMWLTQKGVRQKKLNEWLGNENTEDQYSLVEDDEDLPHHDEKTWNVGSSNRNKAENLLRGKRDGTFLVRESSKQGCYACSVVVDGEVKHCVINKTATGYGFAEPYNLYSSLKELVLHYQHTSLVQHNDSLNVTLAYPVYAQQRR

Row | Structure (SMILES) | IC50 [1] [nM] | IC50 (mTOR kinase) [nM]
1 | Cc1noc(C)c1-c1ccc2c(N3CCOCC3)nc(-c3ccc(NC(=O)Nc4ccc(C(=O)N5CCC(N(C)C)C5)cc4)c(F)c3)nc2c1 (stereo in doubt) [Example 221, (S)-1-(4-(3-(dimethylamino)pyrrolidine-1-carbonyl)phenyl)-3-(4-(7-(3,5-dimethylisoxazol-4-yl)-4-morpholino-quinazolin-2-yl)-2-fluorophenyl)urea] | 50 to 200 | 50 to 200
2 | CN(C)CCNC(=O)c1ccc2c(N3CCOCC3)nc(-c3ccc(NC(=O)Nc4ccc(C(=O)N(C)C)cc4)cc3)nc2c1 [Example 7, 2-[4-{3-(4-Dimethycarbamoyl-phenyl)-Ureido]-phenyl}-4-morpholin-4-yl-quinazoline-7-carboxylic acid (2-dimethylamino-ethyl)-amide] | 50 to 200 | < 50
3 | Cc1ccc(-c2ccc3c(N4CCOCC4)nc(-c4ccc(NC(=O)Nc5ccc(C(=O)N(C)C)cc5)c(F)c4)nc3c2)o1 [Example 8, 4-(3-{2-Fluoro-4-[7-(5-methyl-furan-2-yl)-4-morpholin-4-yl-quinazolin-2-yl]-phenyl}ureido)dimethyl-benzamide] | 201 to 10000 | 50 to 200
4 | CN(C)C(=O)c1ccc(NC(=O)Nc2ccc(-c3nc(N4CCOCC4)c4ccc(-c5ccc(C(=O)O)o5)cc4n3)cc2)cc1 [Example 10, 5-(2-(4-(3-(4-(dimethylcarbamoyl)phenyl)ureido)phenyl)-4-morpholino-quinazolin-7-yl)furan-2-carboxylic acid] | < 50 | < 50
5 | CN1CCN(C(=O)c2ccc(-c3ccc4c(N5CCOCC5)nc(-c5ccc(NC(=O)Nc6ccc(C(=O)N(C)C)cc6)cc5)nc4c3)o2)CC1 [Example 11, N,N-dimethyl-4-(3-(4-(7-(5-(4-methylpiperazine-1-carbonyl)furan-2-yl)-4-morpholino-quinazolin-2-yl)phenyl)ureido)-benzamide] | < 50 | < 50
6 | CN(C)C(=O)c1ccc(NC(=O)Nc2ccc(-c3nc(N4CCOCC4)c4ccc(-c5ccc(C#N)o5)cc4n3)c(F)c2)cc1 [Example 12, 4-(3-(4-(7-(5-cyanofuran-2-yl)-4-morpholino-quinazolin-2-yl)-3-fluorophenyl)ureido)-N,N-dimethyl-benzamide] | < 50 | < 50
7 | CC(=O)c1ccc(-c2ccc3c(N4CCOCC4)nc(-c4ccc(NC(=O)Nc5ccc(C(=O)N(C)C)c(F)c5)cc4)nc3c2)o1 [Example 13, 4-(3-(4-(7-(5-acetylfuran-2-yl)-4-morpholino-quinazolin-2-yl)phenyl)ureido)-2-fluoro-N,N-dimethyl-benzamide] | < 50 | < 50
8 | CN(C)C(=O)c1ccc(NC(=O)Nc2ccc(-c3nc(N4CCOCC4)c4ncc(-c5cnn(C)c5)cc4n3)c(F)c2F)cc1 [Example 14, 4-(3-(2,3-difluoro-4-(7-(1-methyl-1H-pyrazol-4-yl)-4-morpholino-pyrido[3,2-d]pyrimidin-2-yl)phenyl)ureido)-N,N-dimethyl-benzamide] | < 50 | < 50
9 | CC(O)c1ccc(-c2cnc3c(N4CCOCC4)nc(-c4ccc(NC(=O)Nc5ccc(C(=O)N(C)C)cc5)c(F)c4)nc3c2)o1 (stereo not drawn) [Example 15, 4-(3-(2-fluoro-4-(7-(5-(1-hydroxyethyl)furan-2-yl)-4-morpholino-pyrido[3,2-d]pyrimidin-2-yl)phenyl)ureido)-N,N-dimethyl-benzamide] | < 50 | < 50
10 | Cc1ccc(-c2ccc3c(N4CCOCC4)nc(-c4ccc(NC(=O)Nc5ccc(N6CCCC6=O)cc5)cc4)nc3c2)o1 [Example 18, 1-(4-(7-(5-methylfuran-2-yl)-4-morpholino-quinazolin-2-yl)phenyl)-3-(4-(2-oxopyrrolidin-1-yl)phenyl)urea] | 201 to 10000 | < 50
11 | O=C(Nc1ccc(-c2nc(N3CCOCC3)c3ccc(-c4cccnc4F)cc3n2)cc1)Nc1ccc(N2CCCC2=O)cc1 [Example 292, 1-(4-(7-(2-fluoropyridin-3-yl)-4-morpholinoquinazolin-2-yl)phenyl)-3-(4-(2-oxopyrrolidin-1-yl)phenyl)urea] |  | < 50

From patent US9115092B2, “Substituted quinazoline and pyrido-pyrimidine derivatives” (Asana Biosciences, LLC, priority 2010, dated 2015)
